Where “and” joins values, the source holds several entries; their conditions need not be identical. Equal entries are not always repeated.
What was measured:
Anti-GD2 antibody = test: ELISA of immobilized MAP-form peptides with control anti-GD2 antibody; format: binding; details: MAP form 100 ng/well
Description: (§1) A 0.1M NaHCO3 solution containing a GD3-mimetic peptide of the invention in the above MAP form (100 ng/100 μL) was added to the wells of a 96-well micro-titer plate, for immobilization at room temperature for one hour. Subsequently, in a manner similar to the ELISA method employed in Example 2, binding affinity of the GD3-mimetic peptide to GD3 antibody 4F6 was investigated.
(§2) Anti-GD2 antibody and anti-OAcGD3 antibody (Cerato, E., et al., Hybridoma, 16(4), 307-316 (1997)) were used as controls (these antibodies were kindly provided by from Dr. Portoukalian).

Anti-OAcGD3 antibody = test: ELISA of immobilized MAP-form peptides with control anti-OAcGD3 antibody; format: binding; details: MAP form 100 ng/well
Description: as §1, §2

[1] = Titer against GD3 (ELISA) of antiserum from mice immunized with MAP peptides (Example 4); format: in vivo, mice (C57BL/6); details: for reactivity of antiserum with GD3 (ELISA absorbance): individual mice
Description: Four species of GD3-mimetic peptide (MAP) obtained in Example 3 (2) was dissolved in PBS so as to attain a concentration of 200 μg/mL. The solution was added to Freund's complete (or incomplete) adjuvant (1:1, by volume), to thereby prepare an emulsion.
Eight mice (C57BL/6) were immunized by subcutaneous administration of the above emulsion (0.2 mL/mouse, in one administration, […]). Administration was performed every two weeks (for the second and subsequent administrations, Freund's incomplete adjuvant was used). After one week following respective administrations, blood was collected from the tail of each mouse, to thereby yield antiserum.
The antiserum obtained directly after the first administration will be referred to “1-st,” that obtained after the second administration will be referred to “2-nd,” and that obtained after the third administration will be referred to “3-rd.”
The titer, against GD3, of each of the antiserum samples (3×8 mice=24 samples) obtained in the (1) above was measured through ELISA as described below.
The thus-obtained purified GD3 was dissolved in methanol, whereby a GD3 solution having a concentration of 10 μg/mL was prepared. The GD3 solution was added to the wells of a 96-well micro-titer plate in amounts of 10 μL per well (which corresponds to 100 ng GD3 per well), and methanol was evaporated. Subsequently, a blocking solution (TBS supplemented with 1% BSA) was added to the wells in amounts of 50 μL per well, for blocking at 37° C. for 4 hours.
The supernatant was discarded. Each of the antiserum samples obtained in (1) above was diluted 100-fold, 400-fold, or 1,600 fold with the above-mentioned blocking solution. The diluted antiserum (50 μL) was added to each well for reaction at 4° C. overnight. The well was washed six times with TBS, and thereafter, HRP-labeled […] diluted 5,000-fold with the blocking solution was added (50 μL per well) for reaction for 2 hours at room temperature. The well was washed four times with TBS, and thereafter, enzymatic activity (peroxidase) of the well was detected with TMB solution (50 μL). The reaction was stopped with 1N HCl (50 μL), and the value corresponding to “420 nm-620 nm” was calculated.
A control sample was prepared as follows. […] The synthesized peptide was administered to a mouse for immunization, and the obtained antiserum served as a control sample. The titer of the control sample was obtained in a manner similar to that described above. (However, the number of provided mice was five, and only a 100-fold diluted solution was used.) This control peptide sample was also used in the form of MAP as described above.

[2] = system: T-cell-rich lymphocytes / IL-2-dependent CTLL2 cells; test: Cell response test: IL-2 activity (3H thymidine up-take of CTLL2 cells) in supernatant of spleen cells of mice immunized with GD3; format: cell-based, mouse; details: for 3H Thymidine up-take into CTLL2 cells, mean ± SE (4 wells): mice immunized with GD3
[3] = system: T-cell-rich lymphocytes / IL-2-dependent CTLL2 cells; test: Cell response test: IL-2 activity (3H thymidine up-take of CTLL2 cells) in supernatant of spleen cells of mice immunized with R4 peptide (R4-KLH); format: cell-based, mouse; details: for 3H Thymidine up-take into CTLL2 cells, mean ± SE (4 wells): mice immunized with R4 peptide
[4] = stimulant 1 μg/ml, supernatant dilution 1/20
[5] = stimulant 1 μg/ml, supernatant dilution 1/50
[6] = stimulant 1 μg/ml, supernatant dilution ½
[7] = stimulant 1 μg/ml, supernatant dilution ⅕
[8] = stimulant 2 μg/ml, supernatant dilution 1/20
[9] = stimulant 2 μg/ml, supernatant dilution 1/50
[10] = stimulant 2 μg/ml, supernatant dilution ½
[11] = stimulant 2 μg/ml, supernatant dilution ⅕
[12] = stimulant 5 μg/ml, supernatant dilution 1/20
[13] = stimulant 5 μg/ml, supernatant dilution 1/50
[14] = stimulant 5 μg/ml, supernatant dilution ½
[15] = stimulant 5 μg/ml, supernatant dilution ⅕

RHAYRSMAEWGFLYS (RHAYRSMAQWGFLYS) [GD3R4, tested as phage clone, MAP form or peptide]
ELISA absorbance, Anti-GD2 antibody (Anti-GD2 antibody; Serum % 12.50%): 0.061
ELISA absorbance, Anti-GD2 antibody (Anti-GD2 antibody; Serum % 25%): 0.072
ELISA absorbance, Anti-GD2 antibody (Anti-GD2 antibody; Serum % 50%): 0.103
ELISA absorbance, Anti-GD2 antibody (Anti-GD2 antibody; Serum % 100%): 0.149
ELISA absorbance, Anti-OAcGD3 antibody (Anti-OAcGD3 antibody; Serum % 12.50%): 0.045
ELISA absorbance, Anti-OAcGD3 antibody (Anti-OAcGD3 antibody; Serum % 25%): 0.043
ELISA absorbance, Anti-OAcGD3 antibody (Anti-OAcGD3 antibody; Serum % 50%): 0.047
ELISA absorbance, Anti-OAcGD3 antibody (Anti-OAcGD3 antibody; Serum % 100%): 0.061
reactivity of antiserum with GD3 (ELISA absorbance) ([1]; antiserum 1st (after first administration), dilution factor 1/100, MAP 5 μg/mouse s.c.): 0.071 and 0.247 and 0.086 (2×) and 0.08 and 0.063 and 0.082 and 0.042
reactivity of antiserum with GD3 (ELISA absorbance) ([1]; antiserum 1st, dilution factor 1/400): 0.047 and 0.108 and 0.033 and 0.041 and 0.034 and 0.037 and 0.032 and 0.021
reactivity of antiserum with GD3 (ELISA absorbance) ([1]; antiserum 1st, dilution factor 1/1600): 0.014 (2×) and 0.052 and 0.009 and 0.008 and 0.006 and 0.012 and 0.007
reactivity of antiserum with GD3 (ELISA absorbance) ([1]; antiserum 2nd (after second administration), dilution factor 1/100): 0.08 and 0.164 and 0.195 and 0.153 and 0.124 and 0.147 and 0.05 and 0.122
reactivity of antiserum with GD3 (ELISA absorbance) ([1]; antiserum 2nd, dilution factor 1/400): 0.07 and 0.114 and 0.128 and 0.093 and 0.106 and 0.079 and 0.057 and 0.058
reactivity of antiserum with GD3 (ELISA absorbance) ([1]; antiserum 2nd, dilution factor 1/1600): 0.022 and 0.026 and 0.062 and 0.033 and 0.031 and 0.041 and 0.013 and 0.019
reactivity of antiserum with GD3 (ELISA absorbance) ([1]; antiserum 3rd (after third administration), dilution factor 1/100): 0.088 and 0.176 and 0.253 and 0.19 and 0.168 and 0.113 and 0.147 and 0.116
reactivity of antiserum with GD3 (ELISA absorbance) ([1]; antiserum 3rd, dilution factor 1/400): 0.042 and 0.093 and 0.111 and 0.104 and 0.098 and 0.045 and 0.061 and 0.053
reactivity of antiserum with GD3 (ELISA absorbance) ([1]; antiserum 3rd, dilution factor 1/1600): 0.008 and 0.029 and 0.026 and 0.022 and 0.039 and 0.013 (2×) and 0.024
reactivity of antiserum with GD3 ([1]; peptide used as immunogen (MAP)): high reactivity with GD3
IL-2 production by T-cell-rich lymphocytes ([2]; lymphocytes from GD3-immunized mouse): production of IL-2 has been confirmed
3H Thymidine up-take into CTLL2 cells, mean ± SE (4 wells) [2, 4]: 1994 ± 348
3H Thymidine up-take into CTLL2 cells, mean ± SE (4 wells) [2, 5]: 881 ± 127
3H Thymidine up-take into CTLL2 cells, mean ± SE (4 wells) [2, 6]: 5867 ± 1213
3H Thymidine up-take into CTLL2 cells, mean ± SE (4 wells) [2, 7]: 3418 ± 749
3H Thymidine up-take into CTLL2 cells, mean ± SE (4 wells) [2, 8]: 3248 ± 613
3H Thymidine up-take into CTLL2 cells, mean ± SE (4 wells) [2, 9]: 1274 ± 156
3H Thymidine up-take into CTLL2 cells, mean ± SE (4 wells) [2, 10]: 12671 ± 1643
3H Thymidine up-take into CTLL2 cells, mean ± SE (4 wells) [2, 11]: 8349 ± 1014
3H Thymidine up-take into CTLL2 cells, mean ± SE (4 wells) [2, 12]: 7526 ± 839
3H Thymidine up-take into CTLL2 cells, mean ± SE (4 wells) [2, 13]: 2684 ± 387
3H Thymidine up-take into CTLL2 cells, mean ± SE (4 wells) [2, 14]: 14237 ± 1884
3H Thymidine up-take into CTLL2 cells, mean ± SE (4 wells) [2, 15]: 11358 ± 1563
activation of T cells ([3]; R4-KLH-immunized mice): T cells have been confirmed to have activated
3H Thymidine up-take into CTLL2 cells, mean ± SE (4 wells) [3, 4]: 2420 ± 561
3H Thymidine up-take into CTLL2 cells, mean ± SE (4 wells) [3, 5]: 1017 ± 182
3H Thymidine up-take into CTLL2 cells, mean ± SE (4 wells) [3, 6]: 6781 ± 1549
3H Thymidine up-take into CTLL2 cells, mean ± SE (4 wells) [3, 7]: 4413 ± 854
3H Thymidine up-take into CTLL2 cells, mean ± SE (4 wells) [3, 8]: 7934 ± 1031
3H Thymidine up-take into CTLL2 cells, mean ± SE (4 wells) [3, 9]: 2742 ± 751
3H Thymidine up-take into CTLL2 cells, mean ± SE (4 wells) [3, 10]: 15383 ± 2194
3H Thymidine up-take into CTLL2 cells, mean ± SE (4 wells) [3, 11]: 10375 ± 1708
3H Thymidine up-take into CTLL2 cells, mean ± SE (4 wells) [3, 12]: 8354 ± 957
3H Thymidine up-take into CTLL2 cells, mean ± SE (4 wells) [3, 13]: 3058 ± 568
3H Thymidine up-take into CTLL2 cells, mean ± SE (4 wells) [3, 14]: 18692 ± 2310
3H Thymidine up-take into CTLL2 cells, mean ± SE (4 wells) [3, 15]: 12657 ± 1624

— patent publication US8017584B2, “GD3-mimetic peptides” (Otsuka Pharmaceutical Co., Ltd., priority 2000, dated 2011)
